From ChEMBL document CHEMBL4011606, “Synthesis and antiplasmodial activity of novel indoleamide derivatives bearing sulfonamide and triazole pharmacophores” (Eur J Med Chem, 2017)

How the values were obtained:
Plasmodium falciparum [1] = experiment: Antiplasmodial activity against chloroquine-sensitive Plasmodium falciparum 3D7 infected in human erythrocytes measured after 72 hrs by SYBR green 1 dye based fluorescence assay; type: functional, cell-based; details: 3D7, 72 h
[2] = Resistance index, ratio of IC50 for chloroquine-resistant Plasmodium falciparum K1 to IC50 for chloroquine-sensitive Plasmodium falciparum 3D7; type: functional
Plasmodium falciparum [3] = experiment: Antiplasmodial activity against chloroquine-resistant Plasmodium falciparum K1 infected in human erythrocytes measured after 72 hrs by SYBR green 1 dye based fluorescence assay; type: functional, cell-based; details: K1, 72 h
[4] = Selectivity index, ratio of CC50 for African green monkey Vero cells to IC50 for chloroquine-resistant Plasmodium falciparum K1; type: toxicity; details: read-out: Ratio CC50/IC50
[5] = Cytotoxicity against African green monkey Vero cells measured after 3 days by resazurin dye based fluorescence assay; type: cell-based; details: chlorocebus sabaeus
[6] = Selectivity index, ratio of CC50 for African green monkey Vero cells to IC50 for chloroquine-sensitive Plasmodium falciparum 3D7; type: toxicity; details: read-out: Ratio CC50/IC50

Structure (SMILES): Cn1cc(CCCC(=O)NC23CC4CC(CC(C4)C2)C3)c2ccccc21
- IC50 (Plasmodium falciparum [1]): 9.73 µM
- Ratio IC50 [2]: > 1.02
- IC50 (Plasmodium falciparum [3]): > 10 µM

Structure (SMILES): O=C(CCCc1cn(CCN2CCCC2)c2ccccc12)NC12CC3CC(CC(C3)C1)C2
- IC50 (Plasmodium falciparum [1]): 7.03 µM
- Ratio IC50 [2]: 1.37
- IC50 (Plasmodium falciparum [3]): 9.67 µM

Structure (SMILES): O=C(Cn1cc(Cn2cc(CCCC(=O)NC3CCCCCC3)c3ccccc32)nn1)Nc1ccc(I)cc1
- IC50 (Plasmodium falciparum [1]): > 10 µM
- Ratio IC50 [2]: > 1
- IC50 (Plasmodium falciparum [3]): > 10 µM

Structure (SMILES): CCCCCCCn1cc(CCCC(=O)NC23CC4CC(CC(C4)C2)C3)c2ccccc21
- IC50 (Plasmodium falciparum [1]): 1.91 µM
- selectivity ratio [4]: > 70
- CC50 at 72 h [5]: > 250 µM
- selectivity ratio [6]: > 130
- Ratio IC50 [2]: 1.84
- IC50 (Plasmodium falciparum [3]): 3.53 µM

Structure (SMILES): Cc1cc(S(=O)(=O)n2cc(CCCC(=O)NC3CCCCCC3)c3ccccc32)c(C)cc1Cl
- IC50 (Plasmodium falciparum [1]): 2.17 µM
- selectivity ratio [4]: > 114
- CC50 at 72 h [5]: > 250 µM
- selectivity ratio [6]: > 115
- Ratio IC50 [2]: 1
- IC50 (Plasmodium falciparum [3]): 2.19 µM

Structure (SMILES): O=C(Cn1cc(Cn2cc(CCCC(=O)NC34CC5CC(CC(C5)C3)C4)c3ccccc32)nn1)Nc1ccc(Cl)cc1
- IC50 (Plasmodium falciparum [1]): > 10 µM
- Ratio IC50 [2]: > 1
- IC50 (Plasmodium falciparum [3]): > 10 µM

Structure (SMILES): O=C(CCCc1c[nH]c2ccccc12)NC1CCCCCC1
- IC50 (Plasmodium falciparum [1]): > 10 µM
- Ratio IC50 [2]: > 1
- IC50 (Plasmodium falciparum [3]): > 10 µM

Structure (SMILES): CC(C)(C)c1ccc(S(=O)(=O)n2cc(CCCC(=O)NC34CC5CC(CC(C5)C3)C4)c3ccccc32)cc1
- IC50 (Plasmodium falciparum [1]): 1.87 µM
- selectivity ratio [4]: > 147
- CC50 at 72 h [5]: > 250 µM
- selectivity ratio [6]: > 133
- Ratio IC50 [2]: 0.9
- IC50 (Plasmodium falciparum [3]): 1.69 µM

Structure (SMILES): O=C(Cc1c[nH]c2ccccc12)NCc1cn(CC(=O)Nc2ccc(Br)cc2)nn1
- IC50 (Plasmodium falciparum [1]): 8.77 µM
- Ratio IC50 [2]: > 1.14
- IC50 (Plasmodium falciparum [3]): > 10 µM

Structure (SMILES): O=C(Cc1c[nH]c2ccccc12)NCc1cn(CC(=O)Nc2ccc(Cl)cc2)nn1
- IC50 (Plasmodium falciparum [1]): > 10 µM
- Ratio IC50 [2]: > 1
- IC50 (Plasmodium falciparum [3]): > 10 µM

Structure (SMILES): O=C(Cn1cc(Cn2cc(CCCC(=O)NC3CCCCCC3)c3ccccc32)nn1)Nc1ccc(Cl)cc1
- IC50 (Plasmodium falciparum [1]): > 10 µM
- Ratio IC50 [2]: > 1
- IC50 (Plasmodium falciparum [3]): > 10 µM

Structure (SMILES): O=C(CCCc1cn(Cc2ccc(Cl)cc2)c2ccccc12)NC12CC3CC(CC(C3)C1)C2
- IC50 (Plasmodium falciparum [1]): 3.4 µM
- selectivity ratio [4]: > 47
- CC50 at 72 h [5]: > 250 µM
- selectivity ratio [6]: > 73
- Ratio IC50 [2]: 1.55
- IC50 (Plasmodium falciparum [3]): 5.3 µM

Structure (SMILES): O=C(CCCc1cn(Cc2cn(Cc3ccccc3)nn2)c2ccccc12)NC12CC3CC(CC(C3)C1)C2
- IC50 (Plasmodium falciparum [1]): 2.16 µM
- selectivity ratio [4]: > 25
- CC50 at 72 h [5]: > 250 µM
- selectivity ratio [6]: > 115
- Ratio IC50 [2]: > 4.62
- IC50 (Plasmodium falciparum [3]): > 10 µM

Structure (SMILES): O=C(Cc1c[nH]c2ccccc12)NCc1cn(CC(=O)Nc2ccc(F)cc2)nn1
- IC50 (Plasmodium falciparum [1]): 5.16 µM
- Ratio IC50 [2]: 1.43
- IC50 (Plasmodium falciparum [3]): 7.38 µM

Structure (SMILES): O=C(CCCc1cn(Cc2ccc(Br)cc2)c2ccccc12)NC12CC3CC(CC(C3)C1)C2
- IC50 (Plasmodium falciparum [1]): 3.15 µM
- selectivity ratio [4]: > 74
- CC50 at 72 h [5]: > 250 µM
- selectivity ratio [6]: > 79
- Ratio IC50 [2]: 1.06
- IC50 (Plasmodium falciparum [3]): 3.35 µM

Structure (SMILES): Cc1ccc(NC(=O)Cn2cc(Cn3cc(CCCC(=O)NC4CCCCCC4)c4ccccc43)nn2)cc1C
- IC50 (Plasmodium falciparum [1]): > 10 µM
- Ratio IC50 [2]: > 1
- IC50 (Plasmodium falciparum [3]): > 10 µM

Structure (SMILES): Cc1cc(S(=O)(=O)n2cc(CCCC(=O)NC34CC5CC(CC(C5)C3)C4)c3ccccc32)c(C)cc1Cl
- IC50 (Plasmodium falciparum [1]): 1.93 µM
- selectivity ratio [4]: > 112
- CC50 at 72 h [5]: > 250 µM
- selectivity ratio [6]: > 129
- Ratio IC50 [2]: 1.15
- IC50 (Plasmodium falciparum [3]): 2.12 µM

Structure (SMILES): O=C(CCCc1cn(Cc2ccc(F)cc2)c2ccccc12)NC12CC3CC(CC(C3)C1)C2
- IC50 (Plasmodium falciparum [1]): 2.2 µM
- selectivity ratio [4]: > 71
- CC50 at 72 h [5]: > 250 µM
- selectivity ratio [6]: > 113
- Ratio IC50 [2]: 1.59
- IC50 (Plasmodium falciparum [3]): 3.5 µM

Structure (SMILES): CCN(CC)CCCC(C)Nc1ccnc2cc(Cl)ccc12 (configuration not stated) [CHLOROQUINE]
- CC50 at 72 h [5]: 226 µM

Structure (SMILES): O=C(Cn1cc(Cn2cc(CCCC(=O)NC3CCCCCC3)c3ccccc32)nn1)Nc1ccccc1Cl
- IC50 (Plasmodium falciparum [1]): > 10 µM
- Ratio IC50 [2]: > 1
- IC50 (Plasmodium falciparum [3]): > 10 µM

Structure (SMILES): Cc1ccc(S(=O)(=O)n2cc(CCCC(=O)NC3CCCCCC3)c3ccccc32)cc1
- IC50 (Plasmodium falciparum [1]): 3.38 µM
- selectivity ratio [4]: > 76
- CC50 at 72 h [5]: > 250 µM
- selectivity ratio [6]: > 73
- Ratio IC50 [2]: 0.96
- IC50 (Plasmodium falciparum [3]): 3.27 µM

Structure (SMILES): CC(C)(C)c1ccc(S(=O)(=O)n2cc(CCC(=O)NC3CCCCCC3)c3ccccc32)cc1
- IC50 (Plasmodium falciparum [1]): 6.24 µM
- Ratio IC50 [2]: 0.92
- IC50 (Plasmodium falciparum [3]): 5.76 µM

Structure (SMILES): O=C(Cn1cc(Cn2cc(CCCC(=O)NC3CCCCCC3)c3ccccc32)nn1)Nc1ccc(F)c(Cl)c1
- IC50 (Plasmodium falciparum [1]): 9.9 µM
- Ratio IC50 [2]: 0.87
- IC50 (Plasmodium falciparum [3]): 8.64 µM

Structure (SMILES): Cn1cc(CCCC(=O)NC2CCCCCC2)c2ccccc21
- IC50 (Plasmodium falciparum [1]): > 10 µM
- Ratio IC50 [2]: > 1
- IC50 (Plasmodium falciparum [3]): > 10 µM

Structure (SMILES): O=C(CCCc1cn(Cc2ccccc2)c2ccccc12)NC1CCCCCC1
- IC50 (Plasmodium falciparum [1]): 9.56 µM
- Ratio IC50 [2]: > 1.04
- IC50 (Plasmodium falciparum [3]): > 10 µM

Structure (SMILES): O=C(CCCc1cn(Cc2cn(Cc3ccccc3)nn2)c2ccccc12)NC1CCCCCC1
- IC50 (Plasmodium falciparum [1]): > 10 µM
- Ratio IC50 [2]: > 1
- IC50 (Plasmodium falciparum [3]): > 10 µM

Structure (SMILES): O=C(Cn1cc(Cn2cc(CCCC(=O)NC34CC5CC(CC(C5)C3)C4)c3ccccc32)nn1)Nc1ccc(F)cc1
- IC50 (Plasmodium falciparum [1]): > 10 µM
- Ratio IC50 [2]: < 0.86
- IC50 (Plasmodium falciparum [3]): 8.68 µM

Structure (SMILES): O=C(Cc1c[nH]c2ccccc12)NCc1cn(CC(=O)Nc2ccc(F)c(Cl)c2)nn1
- IC50 (Plasmodium falciparum [1]): > 10 µM
- Ratio IC50 [2]: > 1
- IC50 (Plasmodium falciparum [3]): > 10 µM

Structure (SMILES): O=C(Cn1cc(Cn2cc(CCCC(=O)NC3CCCCCC3)c3ccccc32)nn1)Nc1ccc(F)cc1
- IC50 (Plasmodium falciparum [1]): 8.12 µM
- Ratio IC50 [2]: 0.96
- IC50 (Plasmodium falciparum [3]): 7.82 µM

Structure (SMILES): O=C(Cn1cc(Cn2cc(CCCC(=O)NC34CC5CC(CC(C5)C3)C4)c3ccccc32)nn1)Nc1ccc(I)cc1
- IC50 (Plasmodium falciparum [1]): > 10 µM
- Ratio IC50 [2]: > 1
- IC50 (Plasmodium falciparum [3]): > 10 µM

Structure (SMILES): O=C(Cn1cc(Cn2cc(CCCC(=O)NC3CCCCCC3)c3ccccc32)nn1)Nc1ccc(Br)cc1
- IC50 (Plasmodium falciparum [1]): > 10 µM
- Ratio IC50 [2]: < 0.87
- IC50 (Plasmodium falciparum [3]): 8.7 µM

Structure (SMILES): CCCn1cc(CCCC(=O)NC23CC4CC(CC(C4)C2)C3)c2ccccc21
- IC50 (Plasmodium falciparum [1]): 4.79 µM
- Ratio IC50 [2]: 1.53
- IC50 (Plasmodium falciparum [3]): 7.37 µM

Structure (SMILES): O=C(CCCc1c[nH]c2ccccc12)NC12CC3CC(CC(C3)C1)C2
- IC50 (Plasmodium falciparum [1]): > 10 µM
- Ratio IC50 [2]: > 1
- IC50 (Plasmodium falciparum [3]): > 10 µM

Structure (SMILES): O=C(Cn1cc(Cn2cc(CCCC(=O)NC34CC5CC(CC(C5)C3)C4)c3ccccc32)nn1)Nc1ccc(Br)cc1
- IC50 (Plasmodium falciparum [1]): > 10 µM
- Ratio IC50 [2]: < 0.87
- IC50 (Plasmodium falciparum [3]): 8.78 µM

Structure (SMILES): O=C(CCCc1cn(S(=O)(=O)c2cccs2)c2ccccc12)NC1CCCCCC1
- IC50 (Plasmodium falciparum [1]): > 10 µM
- Ratio IC50 [2]: < 0.55
- IC50 (Plasmodium falciparum [3]): 5.55 µM

Structure (SMILES): CC(C)(C)c1ccc(S(=O)(=O)n2cc(CCC(=O)NC34CC5CC(CC(C5)C3)C4)c3ccccc32)cc1
- IC50 (Plasmodium falciparum [1]): 5.8 µM
- Ratio IC50 [2]: 1.06
- IC50 (Plasmodium falciparum [3]): 6.19 µM

Structure (SMILES): O=C(CCCc1cn(S(=O)(=O)c2ccccc2)c2ccccc12)NC1CCCCCC1
- IC50 (Plasmodium falciparum [1]): 7.37 µM
- Ratio IC50 [2]: 0.82
- IC50 (Plasmodium falciparum [3]): 6.06 µM

Structure (SMILES): O=C(CCCc1cn(CCN2CCCCC2)c2ccccc12)NC12CC3CC(CC(C3)C1)C2
- IC50 (Plasmodium falciparum [1]): 5.63 µM
- Ratio IC50 [2]: > 1.37
- IC50 (Plasmodium falciparum [3]): > 10 µM

Structure (SMILES): O=C(Cc1c[nH]c2ccccc12)NCc1cn(CC(=O)Nc2ccccc2Cl)nn1
- IC50 (Plasmodium falciparum [1]): > 10 µM
- Ratio IC50 [2]: > 1
- IC50 (Plasmodium falciparum [3]): > 10 µM

Structure (SMILES): O=C(CCCc1cn(Cc2ccc(Br)cc2)c2ccccc12)NC1CCCCCC1
- IC50 (Plasmodium falciparum [1]): > 10 µM
- Ratio IC50 [2]: > 1
- IC50 (Plasmodium falciparum [3]): > 10 µM

Structure (SMILES): C=CCn1cc(CCCC(=O)NC23CC4CC(CC(C4)C2)C3)c2ccccc21
- IC50 (Plasmodium falciparum [1]): 5.04 µM
- Ratio IC50 [2]: 1.5
- IC50 (Plasmodium falciparum [3]): 7.56 µM

Structure (SMILES): O=C(CCCc1cn(Cc2ccc(Cl)cc2)c2ccccc12)NC1CCCCCC1
- IC50 (Plasmodium falciparum [1]): > 10 µM
- Ratio IC50 [2]: > 1
- IC50 (Plasmodium falciparum [3]): > 10 µM

Structure (SMILES): C=CCn1cc(CCCC(=O)NC2CCCCCC2)c2ccccc21
- IC50 (Plasmodium falciparum [1]): > 10 µM
- Ratio IC50 [2]: > 1
- IC50 (Plasmodium falciparum [3]): > 10 µM

Structure (SMILES): Cc1ccc(NC(=O)Cn2cc(CNC(=O)Cc3c[nH]c4ccccc34)nn2)cc1C
- IC50 (Plasmodium falciparum [1]): 7.02 µM
- Ratio IC50 [2]: 0.87
- IC50 (Plasmodium falciparum [3]): 6.46 µM
